Results reported in ChEMBL document CHEMBL1201862, “PubChem BioAssay data set” (2004).
Activity calls are given as the source filed them.

Legend:
[1] = target: Voltage-gated inwardly rectifying potassium channel KCNH2 (Homo sapiens, UniProt Q12809); conditions: Potency;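 note: confirmatory quantitative high-throughput screen measuring inhibition of hERG channel activity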
[2] = target: T1, Carboxy-terminal domain RNA polymerase II polypeptide A small phosphatase 1 (Homo sapiens, UniProt Q9GZU7); assay: CTDSP1 inhibitors, concentration-response, biochemical, absorbance readout, ultra-high-throughput screen actives (AID 540297); type: functional
T1 sequence (Q9GZU7 whole entry): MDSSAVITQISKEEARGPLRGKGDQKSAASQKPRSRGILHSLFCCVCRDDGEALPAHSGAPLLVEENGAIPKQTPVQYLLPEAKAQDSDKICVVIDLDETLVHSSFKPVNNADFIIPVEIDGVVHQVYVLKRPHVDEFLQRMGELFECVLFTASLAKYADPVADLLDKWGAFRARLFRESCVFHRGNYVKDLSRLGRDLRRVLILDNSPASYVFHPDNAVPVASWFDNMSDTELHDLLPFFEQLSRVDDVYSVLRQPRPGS

[3] = target: DNA dC->dU-editing enzyme APOBEC-3A (Homo sapiens, UniProt P31941); assay: Dose Response confirmation of small molecule APOBEC3A DNA Deaminase Inhibitors via a fluorescence-based single-stranded DNA deaminase assay. [Related pubchem assays (depositor defined):AID493011, AID493024]; type: functional
Sequence of DNA dC->dU-editing enzyme APOBEC-3A (P31941 whole entry): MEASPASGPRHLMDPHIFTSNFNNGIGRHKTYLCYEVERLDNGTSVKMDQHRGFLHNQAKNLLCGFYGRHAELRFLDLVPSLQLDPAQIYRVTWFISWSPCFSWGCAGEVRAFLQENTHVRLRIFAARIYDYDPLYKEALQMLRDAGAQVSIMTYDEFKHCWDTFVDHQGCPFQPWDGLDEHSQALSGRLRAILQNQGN

[4] = target: DNA dC->dU-editing enzyme APOBEC-3G (Homo sapiens, UniProt Q9HC16); type: functional;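 note: Dose-response counterscreen measuring inhibition of APOBEC3G DNA deaminase activity, run while confirming APOBEC3A inhibitors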
[5] = target: Dual specificity tyrosine-phosphorylation-regulated kinase 1A (Rattus norvegicus, UniProt Q63470); type: biochemical, Homo sapiens
[6] = target: Glucose-6-phosphate 1-dehydrogenase (Homo sapiens, UniProt P11413); assay: inhibition of Homo sapiens G6PD, dose series – biochemical, fluorescence, selectivity assay for P. falciparum G6PD inhibitor project, dose response (AID 504792); type: functional
Sequence of Glucose-6-phosphate 1-dehydrogenase (P11413 whole entry): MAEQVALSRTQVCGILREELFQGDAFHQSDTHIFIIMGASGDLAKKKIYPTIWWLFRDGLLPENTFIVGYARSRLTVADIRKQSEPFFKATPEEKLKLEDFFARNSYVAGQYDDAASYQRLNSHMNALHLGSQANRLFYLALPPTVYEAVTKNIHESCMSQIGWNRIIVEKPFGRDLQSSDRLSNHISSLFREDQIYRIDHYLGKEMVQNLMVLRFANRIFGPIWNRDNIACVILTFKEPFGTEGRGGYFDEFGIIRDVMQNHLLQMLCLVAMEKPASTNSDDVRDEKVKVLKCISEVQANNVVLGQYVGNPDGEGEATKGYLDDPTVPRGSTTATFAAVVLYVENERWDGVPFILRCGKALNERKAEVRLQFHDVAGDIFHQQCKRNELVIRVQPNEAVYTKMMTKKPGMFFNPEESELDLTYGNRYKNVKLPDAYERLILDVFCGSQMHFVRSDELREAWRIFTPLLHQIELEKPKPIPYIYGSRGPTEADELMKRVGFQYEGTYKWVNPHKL

Large T antigen = Large T antigen (Simian virus 40, UniProt P03070); type: functional, Betapolyomavirus macacae;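 note: Confirmatory-stage PubChem screen for compounds that inhibit SV40 T antigen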
Sequence of Large T antigen (P03070 whole entry): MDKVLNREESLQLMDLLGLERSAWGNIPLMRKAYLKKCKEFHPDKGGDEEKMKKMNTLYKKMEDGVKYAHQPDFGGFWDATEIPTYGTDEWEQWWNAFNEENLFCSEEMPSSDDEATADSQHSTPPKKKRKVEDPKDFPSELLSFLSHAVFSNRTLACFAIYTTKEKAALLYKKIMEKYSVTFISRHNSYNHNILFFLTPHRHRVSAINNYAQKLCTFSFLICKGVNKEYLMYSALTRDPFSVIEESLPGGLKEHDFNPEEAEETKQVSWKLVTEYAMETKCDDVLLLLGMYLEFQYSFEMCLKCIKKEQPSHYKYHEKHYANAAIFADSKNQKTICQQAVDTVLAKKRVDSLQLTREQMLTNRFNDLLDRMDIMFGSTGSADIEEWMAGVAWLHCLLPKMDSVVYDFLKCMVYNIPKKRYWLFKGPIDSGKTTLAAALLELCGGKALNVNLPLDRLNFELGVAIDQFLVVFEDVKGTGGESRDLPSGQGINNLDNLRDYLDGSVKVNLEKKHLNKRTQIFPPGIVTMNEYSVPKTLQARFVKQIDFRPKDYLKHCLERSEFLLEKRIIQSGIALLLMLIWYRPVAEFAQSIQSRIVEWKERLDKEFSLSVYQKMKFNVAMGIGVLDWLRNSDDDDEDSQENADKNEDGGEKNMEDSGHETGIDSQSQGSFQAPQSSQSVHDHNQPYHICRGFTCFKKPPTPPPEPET

[7] = blockers of bursicon-stimulated LGR2 cAMP reporter – cell-based, HEK293, CRE-luciferase reporter, cherry pick, set 2, dose response (AID 743343); type: functional;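 note: transfected cells were stimulated with diluted bursicon conditioned medium after compound addition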
HEK293 [8] = assay: EBV LMP1 TES2 canonical NF-kB signalling blockers – cell-based, HEK293, luciferase, cherry-pick, dose response (AID 588343); type: functional; conditions: Homo sapiens
[9] = blockade of melanocortin 4 receptor signaling – cell-based, plate reader, cherry pick, counter-screen for LGR2 antagonist project, dose response (AID 743444); type: functional;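 note: transfected HEK 293 cells stimulated with alpha-MSH peptide; potency of inhibitors of the alpha-MSH evoked signal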
[10] = target: T2, Microphthalmia-associated transcription factor (Homo sapiens, UniProt O75030); assay: reducers of TRPM1 reporter luminescence, concentration series – cell-based, SK-MEL-5, cherry-picked, set 3, MITF inhibitor project, dose response (AID 493073); type: functional;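 note: SK-MEL-5 melanoma cells with luciferase driven by the MITF target TRPM1 promoter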
T2 sequence (O75030 whole entry): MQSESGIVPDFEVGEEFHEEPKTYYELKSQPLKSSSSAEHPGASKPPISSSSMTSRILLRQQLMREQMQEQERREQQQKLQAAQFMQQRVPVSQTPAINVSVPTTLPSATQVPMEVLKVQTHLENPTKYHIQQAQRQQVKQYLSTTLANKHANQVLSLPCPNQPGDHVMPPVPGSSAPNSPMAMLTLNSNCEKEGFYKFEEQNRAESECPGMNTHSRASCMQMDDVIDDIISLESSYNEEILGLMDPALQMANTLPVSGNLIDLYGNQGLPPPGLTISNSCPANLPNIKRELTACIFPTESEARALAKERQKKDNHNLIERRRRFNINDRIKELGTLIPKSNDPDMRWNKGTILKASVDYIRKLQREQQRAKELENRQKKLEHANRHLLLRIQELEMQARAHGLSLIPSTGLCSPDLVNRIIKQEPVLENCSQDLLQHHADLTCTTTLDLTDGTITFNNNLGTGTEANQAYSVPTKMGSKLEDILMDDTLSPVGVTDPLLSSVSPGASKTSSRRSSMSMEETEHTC

Tumor necrosis factor = Tumor necrosis factor (Homo sapiens, UniProt P01375); assay: analog potency on TNFa NF-kB signaling – cell-based, revised, SAR follow-up (AID 2337); type: functional
Sequence of Tumor necrosis factor (P01375 whole entry): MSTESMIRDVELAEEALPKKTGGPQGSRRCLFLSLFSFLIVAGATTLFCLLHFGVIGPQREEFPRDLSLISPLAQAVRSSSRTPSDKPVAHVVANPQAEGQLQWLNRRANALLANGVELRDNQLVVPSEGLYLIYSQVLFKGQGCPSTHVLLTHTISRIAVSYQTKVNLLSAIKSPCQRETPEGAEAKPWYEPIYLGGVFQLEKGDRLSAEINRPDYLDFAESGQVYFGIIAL

HEK293 [11] = assay: cells; conditions: Homo sapiens
[12] = target: T3, Heat shock factor protein 1 (Mus musculus, UniProt P38532); assay: decrease of HSF1-responsive luciferase luminescence – cell-based, NIH3T3, dose retest, confirmation (AID 2382); type: functional;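 note: NIH3T3 fibroblasts with HSF1-driven luciferase reporter stressed by proteasome inhibitor MG132; luminescence from HSF1-driven luciferase expression after 8 hours of MG132 stress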
T3 sequence (P38532 whole entry): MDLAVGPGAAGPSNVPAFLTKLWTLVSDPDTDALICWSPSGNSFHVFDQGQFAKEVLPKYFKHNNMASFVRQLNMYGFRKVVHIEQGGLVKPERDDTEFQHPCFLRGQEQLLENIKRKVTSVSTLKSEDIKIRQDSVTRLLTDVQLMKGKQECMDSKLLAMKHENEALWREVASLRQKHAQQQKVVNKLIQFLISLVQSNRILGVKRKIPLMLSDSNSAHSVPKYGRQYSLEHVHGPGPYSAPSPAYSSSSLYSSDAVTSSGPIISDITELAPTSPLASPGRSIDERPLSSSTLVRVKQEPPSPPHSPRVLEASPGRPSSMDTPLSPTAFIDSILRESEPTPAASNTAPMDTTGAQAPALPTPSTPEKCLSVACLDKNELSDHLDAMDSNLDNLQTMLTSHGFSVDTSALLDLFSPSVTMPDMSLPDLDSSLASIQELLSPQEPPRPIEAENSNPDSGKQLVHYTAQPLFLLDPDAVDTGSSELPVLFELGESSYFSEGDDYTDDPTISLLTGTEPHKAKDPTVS

[13] = target: T4, Nucleotide-binding oligomerization domain-containing protein 1 (Homo sapiens, UniProt Q9Y239); assay: blockers of NOD1 pathway activity – revised, SAR follow-up (AID 2333); type: functional
T4 sequence (Q9Y239 whole entry): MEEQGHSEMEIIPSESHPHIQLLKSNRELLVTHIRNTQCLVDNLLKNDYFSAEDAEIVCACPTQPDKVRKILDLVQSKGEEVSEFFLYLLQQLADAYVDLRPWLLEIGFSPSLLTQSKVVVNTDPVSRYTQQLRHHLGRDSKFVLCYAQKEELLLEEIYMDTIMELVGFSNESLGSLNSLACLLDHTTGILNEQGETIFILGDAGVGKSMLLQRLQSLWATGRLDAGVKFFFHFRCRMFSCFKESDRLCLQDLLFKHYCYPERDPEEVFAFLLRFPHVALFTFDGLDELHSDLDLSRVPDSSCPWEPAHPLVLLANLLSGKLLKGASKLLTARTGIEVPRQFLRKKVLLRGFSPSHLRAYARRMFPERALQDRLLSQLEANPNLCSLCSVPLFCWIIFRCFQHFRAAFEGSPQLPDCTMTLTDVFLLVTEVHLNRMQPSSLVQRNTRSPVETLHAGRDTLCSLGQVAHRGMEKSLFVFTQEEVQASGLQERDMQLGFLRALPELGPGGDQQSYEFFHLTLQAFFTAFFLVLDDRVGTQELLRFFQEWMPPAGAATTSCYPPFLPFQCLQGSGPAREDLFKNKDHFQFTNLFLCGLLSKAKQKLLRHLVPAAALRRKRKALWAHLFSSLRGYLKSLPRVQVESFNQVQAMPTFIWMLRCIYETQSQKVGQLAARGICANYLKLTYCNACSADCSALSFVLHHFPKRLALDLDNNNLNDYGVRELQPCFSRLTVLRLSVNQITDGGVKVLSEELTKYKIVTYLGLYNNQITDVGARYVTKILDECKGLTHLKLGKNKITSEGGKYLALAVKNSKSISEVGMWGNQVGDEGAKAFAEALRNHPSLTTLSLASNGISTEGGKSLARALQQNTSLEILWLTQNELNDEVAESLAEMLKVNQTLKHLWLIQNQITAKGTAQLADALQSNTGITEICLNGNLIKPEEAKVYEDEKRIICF

[14] = target: Peroxisome proliferator-activated receptor gamma/Nuclear receptor coactivator 2 (Homo sapiens, UniProt P37231); assay: (§1) TR-FRET dose response biochemical High Throughput Screening assay for agonists of the steroid receptor coactivator 2 (SRC-2) recruitment by the peroxisome proliferator-activated receptor gamma (PPAR gamma): non-selective agonists. [Related pubchem assays: 1297, 1032 ]; type: functional
[15] = target: Peroxisome proliferator-activated receptor gamma/Nuclear receptor coactivator 3 (Homo sapiens, UniProt P37231); assay: as §1, with “3 (SRC-3)” for “2 (SRC-2)”, “1301 (Confirmation screen.), 1048 (Primary screen.)]” for “1297, 1032 ]”; type: functional
Sequence of Peroxisome proliferator-activated receptor gamma/Nuclear receptor coactivator 3 (P37231 whole entry): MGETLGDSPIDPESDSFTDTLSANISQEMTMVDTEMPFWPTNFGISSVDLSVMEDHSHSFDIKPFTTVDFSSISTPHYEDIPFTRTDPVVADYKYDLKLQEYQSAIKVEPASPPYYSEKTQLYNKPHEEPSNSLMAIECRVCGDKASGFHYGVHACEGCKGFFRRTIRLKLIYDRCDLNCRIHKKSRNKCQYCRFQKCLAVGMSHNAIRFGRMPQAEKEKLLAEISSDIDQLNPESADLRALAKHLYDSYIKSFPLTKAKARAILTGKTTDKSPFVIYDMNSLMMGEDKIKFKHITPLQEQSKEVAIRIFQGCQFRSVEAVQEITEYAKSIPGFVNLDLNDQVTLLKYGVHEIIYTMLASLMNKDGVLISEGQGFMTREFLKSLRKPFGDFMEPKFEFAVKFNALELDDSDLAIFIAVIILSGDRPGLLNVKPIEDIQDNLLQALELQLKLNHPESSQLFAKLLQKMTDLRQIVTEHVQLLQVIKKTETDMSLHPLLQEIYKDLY
Sequence of Peroxisome proliferator-activated receptor gamma/Nuclear receptor coactivator 3 (Q9Y6Q9 whole entry, further chain): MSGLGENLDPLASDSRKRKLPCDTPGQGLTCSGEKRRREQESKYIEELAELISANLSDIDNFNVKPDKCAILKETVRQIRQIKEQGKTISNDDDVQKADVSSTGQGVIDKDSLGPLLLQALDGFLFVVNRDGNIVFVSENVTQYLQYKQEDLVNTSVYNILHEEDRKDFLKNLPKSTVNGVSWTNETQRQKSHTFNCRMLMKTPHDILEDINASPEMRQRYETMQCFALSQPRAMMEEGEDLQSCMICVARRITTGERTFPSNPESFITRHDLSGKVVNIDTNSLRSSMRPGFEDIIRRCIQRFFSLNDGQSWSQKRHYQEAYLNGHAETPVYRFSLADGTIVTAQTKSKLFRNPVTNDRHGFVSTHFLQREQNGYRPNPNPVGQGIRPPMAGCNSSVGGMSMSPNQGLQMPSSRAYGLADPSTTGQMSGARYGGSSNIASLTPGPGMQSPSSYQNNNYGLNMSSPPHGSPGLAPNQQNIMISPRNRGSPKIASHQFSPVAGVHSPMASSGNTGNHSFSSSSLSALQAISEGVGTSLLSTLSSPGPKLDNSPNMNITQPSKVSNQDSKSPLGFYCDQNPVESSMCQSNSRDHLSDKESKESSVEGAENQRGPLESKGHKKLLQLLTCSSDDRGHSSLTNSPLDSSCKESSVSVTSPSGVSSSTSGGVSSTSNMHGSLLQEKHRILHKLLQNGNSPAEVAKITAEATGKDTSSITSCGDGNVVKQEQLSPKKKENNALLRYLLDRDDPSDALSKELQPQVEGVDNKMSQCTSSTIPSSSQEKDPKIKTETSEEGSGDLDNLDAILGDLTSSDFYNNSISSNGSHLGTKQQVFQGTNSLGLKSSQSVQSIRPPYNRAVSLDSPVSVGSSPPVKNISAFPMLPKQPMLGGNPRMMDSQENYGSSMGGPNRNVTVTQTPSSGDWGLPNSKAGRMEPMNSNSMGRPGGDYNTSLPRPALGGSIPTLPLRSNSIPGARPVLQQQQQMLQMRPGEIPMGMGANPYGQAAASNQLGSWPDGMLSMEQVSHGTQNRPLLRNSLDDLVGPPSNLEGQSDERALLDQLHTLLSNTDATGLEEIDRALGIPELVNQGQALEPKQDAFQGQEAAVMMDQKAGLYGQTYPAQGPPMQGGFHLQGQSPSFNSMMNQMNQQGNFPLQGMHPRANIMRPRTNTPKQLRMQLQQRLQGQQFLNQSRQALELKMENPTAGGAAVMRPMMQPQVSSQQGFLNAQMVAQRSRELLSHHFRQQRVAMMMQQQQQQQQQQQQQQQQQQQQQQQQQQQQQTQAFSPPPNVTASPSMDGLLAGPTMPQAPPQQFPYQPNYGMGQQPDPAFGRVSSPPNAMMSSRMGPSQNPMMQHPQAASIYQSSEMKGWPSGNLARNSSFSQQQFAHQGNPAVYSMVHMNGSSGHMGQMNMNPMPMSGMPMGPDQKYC

[16] = target: Peroxisome proliferator-activated receptor gamma/Nuclear receptor coactivator 1 (Homo sapiens, UniProt P37231); assay: as §1, with “1 (SRC-1)” for “2 (SRC-2)”, “assays (depositor defined):AID1300, AID1808, AID504735, AID631]” for “assays: 1297, 1032 ]”; type: protein assay

Sequence of Voltage-gated inwardly rectifying potassium channel KCNH2 (Q12809 whole entry, the tested form may be a part): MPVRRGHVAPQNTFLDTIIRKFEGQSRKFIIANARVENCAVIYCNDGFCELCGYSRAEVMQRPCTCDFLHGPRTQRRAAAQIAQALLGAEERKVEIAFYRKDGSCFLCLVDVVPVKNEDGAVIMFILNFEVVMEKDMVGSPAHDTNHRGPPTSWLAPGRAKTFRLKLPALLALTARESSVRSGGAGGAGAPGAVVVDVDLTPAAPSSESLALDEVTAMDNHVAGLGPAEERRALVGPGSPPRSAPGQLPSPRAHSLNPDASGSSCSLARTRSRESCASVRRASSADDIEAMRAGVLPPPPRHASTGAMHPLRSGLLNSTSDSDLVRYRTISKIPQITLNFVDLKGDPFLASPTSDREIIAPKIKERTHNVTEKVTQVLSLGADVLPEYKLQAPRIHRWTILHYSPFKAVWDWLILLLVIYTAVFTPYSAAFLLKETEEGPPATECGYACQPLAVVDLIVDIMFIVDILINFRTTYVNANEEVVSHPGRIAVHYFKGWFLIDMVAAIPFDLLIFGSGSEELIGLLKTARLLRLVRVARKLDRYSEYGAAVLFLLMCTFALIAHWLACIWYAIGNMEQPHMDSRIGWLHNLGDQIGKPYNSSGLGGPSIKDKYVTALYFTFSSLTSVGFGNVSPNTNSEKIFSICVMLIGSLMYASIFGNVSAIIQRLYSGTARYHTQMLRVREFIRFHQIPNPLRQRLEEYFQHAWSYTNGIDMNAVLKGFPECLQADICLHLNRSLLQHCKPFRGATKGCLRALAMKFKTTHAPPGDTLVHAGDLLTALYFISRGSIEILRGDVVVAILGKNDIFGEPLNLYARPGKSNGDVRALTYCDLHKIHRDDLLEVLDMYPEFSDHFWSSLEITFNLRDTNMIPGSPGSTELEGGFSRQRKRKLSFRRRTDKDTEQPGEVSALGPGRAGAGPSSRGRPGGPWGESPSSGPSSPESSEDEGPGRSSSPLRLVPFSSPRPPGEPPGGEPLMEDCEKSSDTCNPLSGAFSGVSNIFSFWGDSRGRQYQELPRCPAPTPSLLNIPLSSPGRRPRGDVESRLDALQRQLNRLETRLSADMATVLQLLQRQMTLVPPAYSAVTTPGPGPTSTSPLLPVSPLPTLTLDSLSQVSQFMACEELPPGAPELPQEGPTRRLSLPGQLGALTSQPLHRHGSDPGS

With `NCC(O)C1CCCCCCC1` (centres undefined) the AC50 [1] was 15.8 µM (inconclusive).
For `O=C(N=C1NCCS1)C1CCN(S(=O)(=O)c2cc([N+](=O)[O-])ccc2Cl)CC1`, the IC50 [2] was 3.39 µM (active), the IC50 [3] was 22 µM (active) and the IC50 [4] was 52.5 µM (active).
With `NC1=NC(=O)/C(=C\c2ccc(O)c([N+](=O)[O-])c2)S1` the AC50 [5] was 1.23 µM (active).
In the case of `COc1ccc(NC2CCCN(Cc3cccc4cnccc34)C2)cc1OC` (centres undefined), the IC50 [6] is reported as > 80 µM (inactive) and the IC50 (Large T antigen) is reported as 42.5 µM (active).
With `[O-]/[N+](=C\c1ccccc1)c1ccc(Br)cc1` the IC50 [6] was 22.1 µM (inactive).
With `O=C(Nc1cccc(C(=O)O)c1)Nc1ccccc1Cl` the AC50 [7] was 2.75 µM (active), the AC50 (HEK293 [8]) was 4.97 µM (active) and the AC50 [9] was 4.29 µM (active).
In the case of `COCCn1c(C)cc(C(=O)COC(=O)c2ccccc2Br)c1C`, the AC50 [10] is reported as 1.14 µM (active), the IC50 (Tumor necrosis factor) is reported as < 0.0391 µM (active) and the IC50 (HEK293 [11]) is reported as > 20 µM (inactive). For the same compound, the EC50 [12] was < 0.16 µM (active) and the IC50 [13] was 11.3 µM (active).
For `O=C1c2ccccc2-c2cccc(NS(=O)(=O)c3ccc(C(F)(F)F)cc3)c21`, the EC50 [14] was > 79.4 µM (not active), the EC50 [15] was > 79.4 µM (not active) and the EC50 [16] was > 79.4 µM (inactive).
